# Assay results from US12527801B2, “Cell activator of animal cell” (Vitamin C60 BioResearch Corporation, priority 2019, dated 2026).
# System: Normal human epidermal keratinocytes
# Assay: Action of activating epidermal cells (MTT reduction)
# Format: cell-based
# Settings: for Index (%) Mean ± S.D.: 48 h, untreated cells = 100
# Experimental: Normal human epidermal keratinocytes were seeded on 96-well plates at the density of 5.0×10^3 cells/well using a HuMedia KG2 medium (KG2). 24 hours after seeding, the above-mentioned medium was replaced with a HuMedia KB2 medium (KB2) comprising the test sample. AOH and AHX (2-azahypoxanthine) were used as test samples, KG2 as a positive control (P. C.) for the cell activating action was treated instead of the test sample, and cells which were not treated with the samples were used as a negative control. After culturing for 48 hours, the above-mentioned medium was replaced with KB2 comprising 0.2 mg/mL of MTT to perform culturing for 1 hour. After removing the medium, the absorbance at 550 nm and 650 nm of the cell lysate in which 2-propanol was added to lyse the cells was measured. The amount of MTT reduced to blue formazan was obtained by subtracting the absorbance at 650 nm, which was derived from the cell turbidity, from the absorbance at 550 nm. The action of activating epidermal keratinocytes was shown as Index (%), which is a percentage of the absorbance of the cells, which was treated with the test samples, to the absorbance of the cells, which was not treated with the samples (negative control), with the amount of MTT reduced as an index.
smiles,measurement,setting,value
"O=c1[nH]nnc2[nH]cnc12 [AHX, 7H-imidazo[4,5-d][1,2,3]triazin-4(3H)-one, reference compound]",Index (%) Mean ± S.D.,3.9 μg/mL,100.6 ± 3%
same,Index (%) Mean ± S.D.,7.8 μg/mL,96.1 ± 2.7%
same,Index (%) Mean ± S.D.,15.6 μg/mL,94 ± 5.9%
same,Index (%) Mean ± S.D.,31.3 μg/mL,87.1 ± 4.5%
same,Index (%) Mean ± S.D.,62.5 μg/mL,80.2 ± 1.8%
same,Index (%) Mean ± S.D.,125 μg/mL,77.4 ± 2^ %
same,Index (%) Mean ± S.D.,250 μg/mL,78.4 ± 1.8%
same,Index (%) Mean ± S.D.,500 μg/mL,74.2 ± 1.9%
same,change in Index,concentration of 31.3 μg/mL or more,significantly reduced
same,proliferative effect / cell activating action,epidermal keratinocytes,did not have a proliferative effect
